Three molecules from US20200236940A1, “2-(HET)ARYL-SUBSTITUTED FUSED HETEROCYCLE DERIVATIVES AS PESTICIDES” (Bayer Aktiengesellschaft, priority 2017, published 2020) can be followed below.

Format in all cases: in vivo
One assay relates to Lucilia cuprina. Briefly: Lucilia cuprina test. As to conditions: after 2 days, L1 larvae. The method, then: Lucilia cuprina Test Solvent: dimethyl sulfoxide To produce a suitable active ingredient formulation, 10 mg of active ingredient are mixed with 0.5 ml of dimethyl sulfoxide, and the concentrate is diluted with water to the desired concentration. About 20 L1 larvae of the Australian sheep blowfly (Lucilia cuprina) are transferred into a test vessel containing minced horsemeat and the active ingredient formulation of the desired concentration. After 2 days, the kill in % is determined. 100% means that all the larvae have been killed; 0% means that no larvae have been killed.

In a further assay the test system is Boophilus microplus. In words: Boophilus microplus injection test. As to conditions: application rate 20 μg/animal, after 7 days, laying of fertile eggs. Here is the method: Boophilus microplus—Injection Test Solvent: dimethyl sulfoxide To produce a suitable active ingredient formulation, 10 mg of active ingredient are mixed with 0.5 ml of solvent and the concentrate is diluted to the desired concentration with solvent. 1 μl of the active ingredient solution is injected into the abdomen of 5 engorged adult female cattle ticks (Boophilus microplus). The animals are transferred into dishes and kept in a climate-controlled room. Efficacy is assessed after 7 days by laying of fertile eggs. Eggs which are not visibly fertile are stored in a climate-controlled cabinet until the larvae hatch after about 42 days. An efficacy of 100% means that none of the ticks has laid any fertile eggs; 0% means that all the eggs are fertile.

The test system of assay [1] is Myzus persicae. Briefly: Myzus persicae spray test (MYZUPE), Chinese cabbage leaf discs. As to conditions: foliar, 120 h. The method, then: Myzus persicae—Spray Test [table] To produce a suitable active ingredient formulation, 1 part by weight of active ingredient is dissolved with the specified parts by weight of solvent and made up to the desired concentration with water containing an emulsifier concentration of 1000 ppm. To produce further test concentrations, the formulation is diluted with emulsifier-containing water. Discs of Chinese cabbage leaves (Brassica pekinensis) infested by all stages of the green peach aphid (Myzus persicae) are sprayed with an active ingredient formulation of the desired concentration. After 5 days, the efficacy in % is determined. 100% means that all the aphids have been killed; 0% means that no aphids have been killed. Myzus persicae—Spray Test (MYZUPE) [table] To produce a suitable active ingredient formulation, 1 part by weight of active ingredient is dissolved with the specified parts by weight of solvent and made up to the desired concentration with water containing an emulsifier concentration of 1000 ppm. To produce further test concentrations, the formulation is diluted with emulsifier-containing water. Discs of Chinese cabbage leaves (Brassica pekinensis) infested by all stages of the green peach aphid (Myzus persicae) are sprayed with an active ingredient formulation of the desired concentration. After the desired period of time, the efficacy in % is determined. 100% means that all the aphids have been killed; 0% means that no aphids have been killed.

For assay [2], the system named is Phaedon cochleariae. Briefly: Phaedon cochleariae spray test, Chinese cabbage leaf discs. The note with it: foliar, 168 h, application rate 100 g/ha, after 7 days, larvae, read-out: efficacy. The method, then:
Phaedon cochleariae—Spray Test
To produce a suitable active ingredient formulation, 1 part by weight of active ingredient is dissolved with the specified parts by weight of solvent and made up to the desired concentration with water containing an emulsifier concentration of 1000 ppm. To produce further test concentrations, the formulation is diluted with emulsifier-containing water.
After 7 days, the efficacy in % is determined. 100% means that all the beetle larvae have been killed; 0% means that no beetle larvae have been killed.

For the next assay, the system named is Musca domestica. Briefly: Musca domestica test. The note with it: application rate 100 ppm, after 2 days, adult houseflies. Here is the method:
Musca domestica Test Solvent: dimethyl sulfoxide To produce a suitable active ingredient formulation, 10 mg of active ingredient are mixed with 0.5 ml of dimethyl sulfoxide, and the concentrate is diluted with water to the desired concentration. Vessels containing a sponge treated with sugar solution and the desired concentration of active ingredient formulation are populated with 10 adult houseflies (Musca domestica). After 2 days, the kill in % is determined. 100% means that all the flies were killed; 0% means that no flies were killed.

Assay [3] has as its system Myzus persicae. In words: Myzus persicae oral test. As to conditions: 120 h, application rate 4 ppm, after 5 days, read-out: efficacy. Here is the method: Myzus persicae—Oral Test Solvent: 100 parts by weight of acetone To produce a suitable active ingredient formulation, 1 part by weight of active ingredient is dissolved with the stated parts by weight of solvent and made up to the desired concentration with water. 50 μl of the active ingredient formulation are transferred into microtitre plates and made up to a final volume of 200 μl with 150 μl of IPL41 insect medium (33%+15% sugar). Subsequently, the plates are sealed with parafilm, which a mixed population of green peach aphids (Myzus persicae) within a second microtitre plate is able to puncture and imbibe the solution. After 5 days, the efficacy in % is determined. 100% means that all the aphids have been killed; 0% means that no aphids have been killed.

Assay [4] relates to Ctenocephalides felis. Briefly: Ctenocephalides felis oral test. As to conditions: application rate 100 ppm, after 2 days. Here is the method:
Ctenocephalides felis—Oral Test Solvent: dimethyl sulfoxide To produce a suitable active ingredient formulation, 10 mg of active ingredient are mixed with 0.5 ml of dimethyl sulfoxide. Dilution with citrated cattle blood gives the desired concentration. About 20 unfed adult cat fleas (Ctenocephalides felis) are placed into a chamber which is closed at the top and bottom with gauze. A metal cylinder whose bottom end is closed with parafilm is placed onto the chamber. The cylinder contains the blood/active ingredient formulation, which can be imbibed by the fleas through the parafilm membrane. After 2 days, the kill in % is determined. 100% means that all of the fleas have been killed; 0% means that none of the fleas have been killed.

For assay [5], the system named is Myzus persicae. Briefly: Myzus persicae spray test, bell pepper plants. As to conditions: application rate 20 ppm, after 6 days. The method, then: Myzus persicae—Spray Test Solvent: 14 parts by weight of dimethylformamide Emulsifier: alkylaryl polyglycol ether To produce a suitable active ingredient formulation, 1 part by weight of active ingredient is dissolved with the specified parts by weight of solvent and made up to the desired concentration with water containing an emulsifier concentration of 1000 ppm. To produce further test concentrations, the formulation is diluted with emulsifier-containing water. If the addition of ammonium salts or/and penetrants is required, these are each added in a concentration of 1000 ppm to the formulation solution. Bell pepper plants (Capsicum annuum) severely infested with the green peach aphid (Myzus persicae) are treated by spraying with the active ingredient formulation in the desired concentration. After 6 days, the kill in % is determined. 100% means that all of the aphids have been killed; 0% means that none of the aphids have been killed.

For assay [6], the system named is Ctenocephalides felis. Briefly: Ctenocephalides felis in vitro contact test with adult cat fleas. The note with it: application rate 5 μg/cm^2 (=500 g/ha), after 48 h. Here is the method:
Ctenocephalides felis—In Vitro Contact Tests with Adult Cat Fleas For the coating of the test tubes, 9 mg of active ingredient are first dissolved in 1 ml of acetone p.a. and then diluted to the desired concentration with acetone p.a. 250 μl of the solution are distributed homogeneously on the inner walls and the base of a 25 ml glass tube by turning and rocking on an orbital shaker (rocking rotation at 30 rpm for 2 h). With 900 ppm of active ingredient solution and internal surface area 44.7 cm^2, given homogeneous distribution, an area-based dose of 5 μg/cm^2 is achieved. After the solvent has evaporated off, the tubes are populated with 5-10 adult cat fleas (Ctenocephalides felis), sealed with a perforated plastic lid and incubated in a horizontal position at room temperature and ambient humidity. After 48 h, efficacy is determined. To this end, the tubes are stood upright and the fleas are knocked to the base of the tube. Fleas which remain motionless at the base or move in an uncoordinated manner are considered to be dead or moribund. […] 100% efficacy means that all the fleas were dead or moribund. 0% efficacy means that no fleas were harmed.

The next assay has as its system Nezara viridula. Briefly: Nezara viridula spray test. The note with it: 96 h, NEZAVI, 500 g of ai/ha, 4 dat, read-out: % efficacy. Here is the method:
Nezara viridula—Spray Test [table] To produce a suitable active ingredient formulation, 1 part by weight of active ingredient is dissolved with the specified parts by weight of solvent and made up to the desired concentration with water containing an emulsifier concentration of 1000 ppm. To produce further test concentrations, the formulation is diluted with emulsifier-containing water. If the addition of ammonium salts or/and penetrants is required, these are each added in a concentration of 1000 ppm to the formulation solution. Barley plants (Hordeum vulgare) infected with larvae of the Southern green shield bug (Nezara viridula) are sprayed with an active ingredient formulation of the desired concentration. After the desired period of time, the efficacy in % is determined. 100% means that all of the shield bugs have been killed; 0% means that none of the shield bugs have been killed.

For assay [7], the system named is Spodoptera frugiperda. In words: Spodoptera frugiperda drench test (SPODFR D). As to conditions: soil, 336 h, 14 dat, read-out: % efficacy. Here is the method: Spodoptera frugiperda—Drench Test (SPODFR D) [table] To produce a suitable active ingredient formulation, 1 part by weight of active ingredient is mixed with the specified amounts of solvent and emulsifier, and the concentrate is diluted with water to the desired concentration, it being necessary to take into account the volume of soil which is drenched. It should be ensured that a concentration of 40 ppm of emulsifier in the soil is not exceeded. To produce further test concentrations, water is used for dilution. Maize plants (Zea mays) in pots of soil are watered with an active ingredient formulation of the desired concentration and infected with caterpillars of the armyworm (Spodoptera frugiperda). After the desired time, the kill in % is determined. 100% means that all caterpillars have been killed; 0% means that none of the caterpillars have been killed.

The test system of another assay is Nilaparvata lugens. In words: Nilaparvata lugens spray test (NILALU). The note with it: 96 h, 4 dat, read-out: % efficacy. The method, then: Nilaparvata lugens—Spray Test (NILALU)
(§1) To produce a suitable active ingredient formulation, 1 part by weight of active ingredient is dissolved with the specified parts by weight of solvent and made up to the desired concentration with water containing an emulsifier concentration of 1000 ppm. To produce further test concentrations, the formulation is diluted with emulsifier-containing water. If the addition of ammonium salts or/and penetrants is required, these are each added in a concentration of 1000 ppm to the formulation solution.
Rice plants (Oryza sativa) are sprayed with an active ingredient formulation of the desired concentration and then populated with larvae of the brown planthopper (Nilaparvata lugens).
[…], the efficacy in % is determined. 100% means that all of the planthoppers have been killed; 0% means that none of the planthoppers have been killed.

In assay [8] the test system is Phaedon cochleariae. In words: Phaedon cochleariae spray test (PHAECO), cabbage leaves. The note with it: 168 h, 7 dat, read-out: % efficacy. The method, then:
Phaedon cochleariae—Spray Test (PHAECO)
Solvent: 14 parts by weight of dimethylformamide
Emulsifier: alkylaryl polyglycol ether
as §1
Cabbage leaves (Brassica oleracea) are sprayed with an active ingredient formulation of the desired concentration and populated with larvae of the mustard beetle (Phaedon cochleariae).
After the desired time, the kill in % is determined. 100% means that all the beetle larvae have been killed; 0% means that no beetle larvae have been killed.

Assay [9] has as its system Spodoptera frugiperda. Briefly: Spodoptera frugiperda spray test (SPODFR S), cotton leaves. As to conditions: 168 h, 7 dat, read-out: % efficacy. The method, then: Spodoptera frugiperda—Spray Test (SPODFR S) Solvent: 14 parts by weight of dimethylformamide Emulsifier: alkylaryl polyglycol ether To produce a suitable active ingredient formulation, 1 part by weight of active ingredient is dissolved with the specified parts by weight of solvent and made up to the desired concentration with water containing an emulsifier concentration of 1000 ppm. To produce further test concentrations, the formulation is diluted with emulsifier-containing water. If the addition of ammonium salts or/and penetrants is required, these are each added in a concentration of 1000 ppm to the formulation solution. Cotton leaves (Gossypium hirsutum) are sprayed with an active ingredient formulation of the desired concentration and populated with caterpillars of the armyworm (Spodoptera frugiperda). After the desired time, the kill in % is determined. 100% means that all caterpillars have been killed; 0% means that none of the caterpillars have been killed.

On to `CCS(=O)(=O)c1ccc(-n2cncn2)nc1-c1nc2cc(C(F)(F)F)nc(C)c2n1C` [Example I-003], for which the “efficacy (kill)” value in the assay on Lucilia cuprina (application rate 100 ppm), with Musca domestica and with Ctenocephalides felis [4] was 100% throughout. In the assay with Boophilus microplus, the efficacy is 100%. In the assay with Myzus persicae [1] (application rate 20 g/ha, after 5 days, read-out: efficacy), the pest or weed control at 20 g/ha came to 90%. Also, the pest or weed control at 100 g/ha with Phaedon cochleariae [2] amounted to 83%. Also, the pest or weed control at 4 ppm in the assay with Myzus persicae [3] was 100%.
Consider `CCS(=O)(=O)c1ccc(-n2ccnn2)nc1-c1nc2cc(C(F)(F)F)nc(C)c2n1C` [Example I-013], for which the “efficacy (kill)” value with Lucilia cuprina (application rate 20 ppm) is 80%; in the assay on Lucilia cuprina (application rate 100 ppm), 100%; in the assay on Myzus persicae [5], 100%; with Musca domestica, 100%; in the assay with Ctenocephalides felis [4], 100%. In the assay with Myzus persicae [1] (MYZUPE, 4 g of ai/ha, 5 dat, read-out: % efficacy), the Emax at 4 g/ha was 70%. In the assay on Phaedon cochleariae [2], the pest or weed control at 100 g/ha is 83%. Moreover, the pest or weed control at 4 ppm with Myzus persicae [3] was found to be 100%. The efficacy in the assay on Ctenocephalides felis [6] amounted to 100%.
Regarding `CCS(=O)(=O)c1ccc(-n2ncn(-c3ccc(Cl)cc3)c2=O)nc1-c1nc2cc(C(F)(F)F)ncc2n1C` [Prior art WO 2017/055185 (Ex. I-19), reference compound], the Emax at 500 g/ha in the assay on Nezara viridula and in the assay with Nilaparvata lugens (500 g of ai/ha) was 0% in each case. For the same molecule, in the assay with Spodoptera frugiperda [7], the Emax at 20 ppm came out at 0%. In the assay on Myzus persicae [1] (MYZUPE, 20 g of ai/ha, 5 dat, read-out: % efficacy), the Emax at 20 g/ha was determined as 0%. Also, the Emax at 100 g/ha was 0% with Myzus persicae [1] (MYZUPE, 100 g of ai/ha, 5 dat, read-out: % efficacy) and 0% in the assay with Nilaparvata lugens (100 g of ai/ha). Also, in the assay on Phaedon cochleariae [8], the Emax at 0.8 ppm came to 70%. For the same molecule, the Emax at 4 ppm with Spodoptera frugiperda [9] came to 35%.
